Results from ChEMBL document CHEMBL5465560, “Selectivity Literature for EUbOPEN Chemogenomic Library” (2024).
Values belong to the molecule of their own block, whether it stands above or below them.

Tests used:
[1] = biological target: Mitogen-activated protein kinase kinase kinase 1 (Homo sapiens, UniProt Q13233); conditions: at 10 µM
[2] = biological target: 5'-AMP-activated protein kinase catalytic subunit alpha-1 (Homo sapiens, UniProt Q13131); test: Selectivity interaction (ActivX KiNativ screen (kinase selectivity in THP-1 cell lysates)) EUB0000639a PRKAA1; format: subcellular; conditions: lysate
[3] = biological target: Glycogen synthase kinase-3 beta (Homo sapiens, UniProt P49841); test: Selectivity interaction (Kinase panel (Z-LYTE Assay)) EUB0001632a GSK3B; conditions: at 10 µM
[4] = biological target: Phosphatidylinositol 3-kinase catalytic subunit type 3 (Homo sapiens, UniProt Q8NEB9); test: Selectivity interaction (KinomeScan (DiscoverX)) EUB0000695a PIK3C3; conditions: at 100 nM
[5] = biological target: Tyrosine-protein kinase Lck (Homo sapiens, UniProt P06239); test: Selectivity interaction (KinomeScan (DiscoverX)) EUB0000699a LCK; conditions: at 10 µM
[6] = system: Tyrosine-protein kinase ABL1 (Homo sapiens), P00519 [F317L]; test: (§1) Selectivity interaction (KinomeScan (DiscoverX)) EUB0000229b ABL1; conditions: at 1 µM
[7] = system: Tyrosine-protein kinase ABL1 (Homo sapiens), P00519 [F317I]; test: as §1; conditions: at 1 µM
[8] = system: Tyrosine-protein kinase ABL1 (Homo sapiens), P00519 [T315I]; test: as §1; conditions: at 1 µM
[9] = system: Tyrosine-protein kinase ABL1 (Homo sapiens), P00519 [E255K]; test: as §1; conditions: at 1 µM
[10] = system: Tyrosine-protein kinase ABL1 (Homo sapiens), P00519 [Y253F]; test: as §1; conditions: at 1 µM
[11] = system: Tyrosine-protein kinase ABL1 (Homo sapiens), P00519 [Q252H]; test: as §1; conditions: at 1 µM
[12] = system: Tyrosine-protein kinase ABL1 (Homo sapiens), P00519 [H396P]; test: as §1; conditions: at 1 µM
[13] = system: Tyrosine-protein kinase ABL1 (Homo sapiens), P00519 [M351T]; test: as §1; conditions: at 1 µM
[14] = biological target: T1, Protein kinase C epsilon type (Homo sapiens) (UniProt Q02156); test: Selectivity interaction (KinomeScan (DiscoverX)) EUB0000092b PRKCE; conditions: at 10 µM
T1 sequence (whole entry): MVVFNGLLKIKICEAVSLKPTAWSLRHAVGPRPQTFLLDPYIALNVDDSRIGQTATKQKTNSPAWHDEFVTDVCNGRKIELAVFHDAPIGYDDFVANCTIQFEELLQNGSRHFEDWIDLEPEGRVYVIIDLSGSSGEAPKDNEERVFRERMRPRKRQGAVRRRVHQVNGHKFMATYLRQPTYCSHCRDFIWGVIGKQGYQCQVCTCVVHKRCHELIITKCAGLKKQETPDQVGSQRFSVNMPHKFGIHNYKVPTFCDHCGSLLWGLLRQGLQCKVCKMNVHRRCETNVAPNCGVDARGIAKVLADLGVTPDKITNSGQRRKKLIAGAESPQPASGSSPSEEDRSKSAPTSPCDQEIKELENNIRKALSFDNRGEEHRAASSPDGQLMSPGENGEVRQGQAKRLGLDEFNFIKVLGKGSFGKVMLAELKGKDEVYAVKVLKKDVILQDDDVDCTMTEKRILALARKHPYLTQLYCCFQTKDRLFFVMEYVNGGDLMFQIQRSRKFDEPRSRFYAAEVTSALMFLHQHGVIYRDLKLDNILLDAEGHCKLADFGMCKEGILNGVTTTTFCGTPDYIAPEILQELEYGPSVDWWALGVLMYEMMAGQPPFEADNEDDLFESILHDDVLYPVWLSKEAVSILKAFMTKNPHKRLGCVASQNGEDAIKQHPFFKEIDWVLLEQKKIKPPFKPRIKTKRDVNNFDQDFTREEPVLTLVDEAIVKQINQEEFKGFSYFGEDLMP

[15] = biological target: T2, Aurora kinase C (Homo sapiens) (UniProt Q9UQB9); test: Selectivity interaction (KinomeScan (DiscoverX)) EUB0001619a AURKC; conditions: at 1 µM
T2 sequence (whole entry): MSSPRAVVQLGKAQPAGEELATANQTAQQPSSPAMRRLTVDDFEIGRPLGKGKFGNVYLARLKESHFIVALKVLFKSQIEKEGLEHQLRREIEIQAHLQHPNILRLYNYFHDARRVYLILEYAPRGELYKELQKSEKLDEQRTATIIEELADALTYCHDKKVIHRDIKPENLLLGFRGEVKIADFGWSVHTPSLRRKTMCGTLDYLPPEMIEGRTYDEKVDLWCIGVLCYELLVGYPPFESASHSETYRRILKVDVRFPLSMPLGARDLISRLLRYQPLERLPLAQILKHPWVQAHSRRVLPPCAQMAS

[16] = biological target: Serine/threonine-protein kinase Nek4 (Homo sapiens) (UniProt P51957); test: Selectivity interaction (Kinase panel (KiNativ target engagement assay in Jurkat cells)) EUB0001635a NEK4; format: cell-based; conditions: at 1 µM
[17] = biological target: T3, Peripheral plasma membrane protein CASK (Homo sapiens) (UniProt O14936); test: Selectivity interaction (Kinase panel (DSF assay)) EUB0001558a CASK
T3 sequence (whole entry): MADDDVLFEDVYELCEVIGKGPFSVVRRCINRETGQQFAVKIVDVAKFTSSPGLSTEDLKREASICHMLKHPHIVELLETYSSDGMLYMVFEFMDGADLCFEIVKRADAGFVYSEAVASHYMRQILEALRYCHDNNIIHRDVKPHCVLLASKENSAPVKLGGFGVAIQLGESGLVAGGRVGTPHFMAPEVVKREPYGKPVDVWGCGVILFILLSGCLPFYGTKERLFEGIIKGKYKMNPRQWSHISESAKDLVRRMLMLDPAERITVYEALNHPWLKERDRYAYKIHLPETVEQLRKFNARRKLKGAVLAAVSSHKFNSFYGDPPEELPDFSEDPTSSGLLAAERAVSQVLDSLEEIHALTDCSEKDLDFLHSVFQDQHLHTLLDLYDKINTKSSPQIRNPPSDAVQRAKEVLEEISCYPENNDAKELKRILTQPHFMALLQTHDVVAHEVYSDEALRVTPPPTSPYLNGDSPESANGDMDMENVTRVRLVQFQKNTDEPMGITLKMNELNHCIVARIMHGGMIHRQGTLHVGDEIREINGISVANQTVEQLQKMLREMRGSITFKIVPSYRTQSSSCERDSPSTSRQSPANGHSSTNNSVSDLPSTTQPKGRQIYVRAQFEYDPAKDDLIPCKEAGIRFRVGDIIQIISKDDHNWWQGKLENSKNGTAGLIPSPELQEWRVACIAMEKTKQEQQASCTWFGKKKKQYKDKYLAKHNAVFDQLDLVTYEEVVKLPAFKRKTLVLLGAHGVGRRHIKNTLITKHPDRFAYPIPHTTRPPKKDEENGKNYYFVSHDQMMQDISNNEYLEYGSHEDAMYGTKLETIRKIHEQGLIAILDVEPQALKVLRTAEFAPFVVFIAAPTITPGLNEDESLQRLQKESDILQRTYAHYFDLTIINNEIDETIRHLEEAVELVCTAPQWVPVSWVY

Sequence of 5'-AMP-activated protein kinase catalytic subunit alpha-1 (Q13131 whole entry, looked up): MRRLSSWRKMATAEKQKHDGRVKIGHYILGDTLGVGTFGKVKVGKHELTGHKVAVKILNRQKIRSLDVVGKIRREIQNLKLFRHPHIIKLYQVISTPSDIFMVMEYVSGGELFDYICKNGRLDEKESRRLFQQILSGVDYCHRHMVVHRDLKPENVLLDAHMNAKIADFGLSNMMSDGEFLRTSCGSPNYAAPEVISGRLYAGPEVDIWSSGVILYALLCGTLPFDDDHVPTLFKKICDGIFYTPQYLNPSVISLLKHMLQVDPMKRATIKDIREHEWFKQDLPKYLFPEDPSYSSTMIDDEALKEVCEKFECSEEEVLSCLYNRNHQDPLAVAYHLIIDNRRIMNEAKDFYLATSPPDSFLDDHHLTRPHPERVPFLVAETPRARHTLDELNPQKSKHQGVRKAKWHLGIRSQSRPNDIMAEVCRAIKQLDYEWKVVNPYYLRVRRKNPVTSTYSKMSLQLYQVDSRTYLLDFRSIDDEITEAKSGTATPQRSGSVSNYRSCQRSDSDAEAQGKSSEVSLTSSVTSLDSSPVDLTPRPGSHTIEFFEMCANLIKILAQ
Sequence of Tyrosine-protein kinase Lck (P06239 2-509 limits assumed): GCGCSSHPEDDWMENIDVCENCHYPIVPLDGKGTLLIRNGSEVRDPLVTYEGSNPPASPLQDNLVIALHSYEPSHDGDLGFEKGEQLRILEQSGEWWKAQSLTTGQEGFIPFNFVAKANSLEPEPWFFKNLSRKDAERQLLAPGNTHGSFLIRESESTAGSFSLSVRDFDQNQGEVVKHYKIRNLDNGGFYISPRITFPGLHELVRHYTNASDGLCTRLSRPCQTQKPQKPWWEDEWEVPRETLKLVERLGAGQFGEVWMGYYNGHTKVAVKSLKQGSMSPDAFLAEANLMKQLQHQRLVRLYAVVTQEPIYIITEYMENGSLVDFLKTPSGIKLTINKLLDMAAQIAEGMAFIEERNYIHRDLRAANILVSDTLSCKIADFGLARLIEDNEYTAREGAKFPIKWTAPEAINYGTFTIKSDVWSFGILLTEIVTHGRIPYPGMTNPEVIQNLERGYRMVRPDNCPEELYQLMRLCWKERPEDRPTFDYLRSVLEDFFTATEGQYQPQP
Sequence of Phosphatidylinositol 3-kinase catalytic subunit type 3 (Q8NEB9 whole entry): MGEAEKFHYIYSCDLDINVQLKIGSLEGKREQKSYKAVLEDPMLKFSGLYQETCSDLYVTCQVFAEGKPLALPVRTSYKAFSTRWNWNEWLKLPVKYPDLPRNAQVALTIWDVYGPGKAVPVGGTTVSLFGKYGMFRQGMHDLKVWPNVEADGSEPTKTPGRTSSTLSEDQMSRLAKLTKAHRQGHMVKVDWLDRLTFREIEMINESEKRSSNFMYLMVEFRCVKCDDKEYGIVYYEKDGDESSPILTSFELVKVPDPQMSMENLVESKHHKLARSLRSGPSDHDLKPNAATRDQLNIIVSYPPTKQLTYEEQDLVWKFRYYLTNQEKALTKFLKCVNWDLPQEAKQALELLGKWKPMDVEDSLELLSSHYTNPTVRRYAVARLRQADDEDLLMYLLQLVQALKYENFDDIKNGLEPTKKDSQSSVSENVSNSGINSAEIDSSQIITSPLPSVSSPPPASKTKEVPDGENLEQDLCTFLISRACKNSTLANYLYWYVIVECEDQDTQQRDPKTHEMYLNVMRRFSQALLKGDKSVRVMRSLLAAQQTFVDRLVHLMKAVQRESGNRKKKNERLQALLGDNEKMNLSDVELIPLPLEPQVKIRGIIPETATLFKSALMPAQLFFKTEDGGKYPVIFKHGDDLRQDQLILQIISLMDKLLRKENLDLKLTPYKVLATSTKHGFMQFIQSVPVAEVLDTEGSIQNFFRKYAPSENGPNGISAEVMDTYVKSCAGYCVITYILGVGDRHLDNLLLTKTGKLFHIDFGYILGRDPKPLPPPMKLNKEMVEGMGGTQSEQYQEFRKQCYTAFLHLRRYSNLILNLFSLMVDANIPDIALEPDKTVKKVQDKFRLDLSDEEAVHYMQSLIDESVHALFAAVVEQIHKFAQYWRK
Sequence of Glycogen synthase kinase-3 beta (P49841 whole entry, looked up): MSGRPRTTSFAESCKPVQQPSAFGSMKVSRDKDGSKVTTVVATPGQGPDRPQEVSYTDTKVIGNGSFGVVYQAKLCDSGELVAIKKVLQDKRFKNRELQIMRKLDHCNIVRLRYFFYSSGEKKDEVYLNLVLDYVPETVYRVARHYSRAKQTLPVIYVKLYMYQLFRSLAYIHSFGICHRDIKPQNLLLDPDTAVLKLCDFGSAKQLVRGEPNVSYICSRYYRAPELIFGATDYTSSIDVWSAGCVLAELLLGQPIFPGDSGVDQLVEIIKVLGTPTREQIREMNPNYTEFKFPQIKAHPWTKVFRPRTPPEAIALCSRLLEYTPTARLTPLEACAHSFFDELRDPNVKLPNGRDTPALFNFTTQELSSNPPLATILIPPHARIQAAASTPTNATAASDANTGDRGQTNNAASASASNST
Sequence of Mitogen-activated protein kinase kinase kinase 1 (Q13233 whole entry): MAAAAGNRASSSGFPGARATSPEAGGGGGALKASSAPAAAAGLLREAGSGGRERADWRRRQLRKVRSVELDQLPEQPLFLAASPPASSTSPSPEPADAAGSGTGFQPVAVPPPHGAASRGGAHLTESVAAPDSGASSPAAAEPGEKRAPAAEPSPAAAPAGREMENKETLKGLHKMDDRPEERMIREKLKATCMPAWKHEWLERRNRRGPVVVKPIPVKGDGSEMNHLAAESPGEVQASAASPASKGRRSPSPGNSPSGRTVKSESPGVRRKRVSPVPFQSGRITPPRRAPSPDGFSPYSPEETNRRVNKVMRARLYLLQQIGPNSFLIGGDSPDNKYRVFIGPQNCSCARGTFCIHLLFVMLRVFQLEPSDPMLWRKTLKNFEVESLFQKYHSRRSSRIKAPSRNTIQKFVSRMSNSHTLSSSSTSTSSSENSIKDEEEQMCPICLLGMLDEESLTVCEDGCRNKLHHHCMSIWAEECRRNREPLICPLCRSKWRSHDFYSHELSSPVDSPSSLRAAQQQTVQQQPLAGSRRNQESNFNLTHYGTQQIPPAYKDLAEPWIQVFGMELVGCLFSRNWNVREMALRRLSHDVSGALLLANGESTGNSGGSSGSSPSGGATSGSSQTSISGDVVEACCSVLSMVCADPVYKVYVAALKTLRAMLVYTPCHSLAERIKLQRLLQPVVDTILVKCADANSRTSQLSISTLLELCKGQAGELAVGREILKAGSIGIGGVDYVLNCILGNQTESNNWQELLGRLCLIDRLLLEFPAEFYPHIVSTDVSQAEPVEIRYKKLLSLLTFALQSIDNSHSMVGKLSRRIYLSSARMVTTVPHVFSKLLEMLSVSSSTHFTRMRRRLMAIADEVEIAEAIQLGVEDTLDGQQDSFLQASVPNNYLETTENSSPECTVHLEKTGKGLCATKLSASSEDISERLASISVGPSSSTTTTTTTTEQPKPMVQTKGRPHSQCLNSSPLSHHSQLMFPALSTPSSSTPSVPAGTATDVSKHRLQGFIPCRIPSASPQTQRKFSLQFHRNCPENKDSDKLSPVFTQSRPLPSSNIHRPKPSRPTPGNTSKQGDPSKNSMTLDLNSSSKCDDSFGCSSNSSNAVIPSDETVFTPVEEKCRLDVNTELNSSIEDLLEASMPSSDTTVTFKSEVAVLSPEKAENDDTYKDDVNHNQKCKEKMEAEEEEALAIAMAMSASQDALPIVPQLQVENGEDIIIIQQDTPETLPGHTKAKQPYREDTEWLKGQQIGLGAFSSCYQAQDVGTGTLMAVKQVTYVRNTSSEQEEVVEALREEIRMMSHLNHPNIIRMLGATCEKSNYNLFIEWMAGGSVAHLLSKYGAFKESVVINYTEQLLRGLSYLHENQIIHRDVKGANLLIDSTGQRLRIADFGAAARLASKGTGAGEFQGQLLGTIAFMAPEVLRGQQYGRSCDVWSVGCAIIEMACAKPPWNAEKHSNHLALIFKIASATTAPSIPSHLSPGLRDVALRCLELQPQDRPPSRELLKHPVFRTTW
Sequence of Serine/threonine-protein kinase Nek4 (Homo sapiens) (P51957 whole entry, looked up): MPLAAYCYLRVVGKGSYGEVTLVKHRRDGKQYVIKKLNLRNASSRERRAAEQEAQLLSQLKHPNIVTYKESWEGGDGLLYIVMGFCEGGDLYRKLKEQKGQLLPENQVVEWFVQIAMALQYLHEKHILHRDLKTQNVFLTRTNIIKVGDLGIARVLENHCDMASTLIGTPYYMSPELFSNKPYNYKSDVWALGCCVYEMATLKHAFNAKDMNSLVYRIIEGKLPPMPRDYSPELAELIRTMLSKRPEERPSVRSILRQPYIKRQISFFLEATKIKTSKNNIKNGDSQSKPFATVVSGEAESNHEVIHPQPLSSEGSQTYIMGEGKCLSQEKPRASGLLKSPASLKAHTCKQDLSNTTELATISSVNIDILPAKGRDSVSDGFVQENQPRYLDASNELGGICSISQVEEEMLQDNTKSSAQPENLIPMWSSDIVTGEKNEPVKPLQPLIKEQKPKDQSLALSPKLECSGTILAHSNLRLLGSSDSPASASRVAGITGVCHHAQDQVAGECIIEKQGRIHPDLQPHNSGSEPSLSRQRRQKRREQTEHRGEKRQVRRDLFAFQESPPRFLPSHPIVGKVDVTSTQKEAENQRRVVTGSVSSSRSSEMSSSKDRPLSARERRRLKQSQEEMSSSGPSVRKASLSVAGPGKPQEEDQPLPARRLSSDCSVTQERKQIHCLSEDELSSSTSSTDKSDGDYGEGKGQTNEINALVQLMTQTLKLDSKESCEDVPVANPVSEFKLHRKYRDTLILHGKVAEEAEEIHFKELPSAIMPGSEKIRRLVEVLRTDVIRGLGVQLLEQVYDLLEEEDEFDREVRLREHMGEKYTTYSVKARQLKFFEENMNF

SMILES: Cc1cc([C@@H](C)Nc2ccccc2C(=O)O)c2nc(N3CCOCC3)cc(=O)n2c1 [AZD-6482]
- % of control [1]: 90%

- % of inhibition ([2]; at 0.01 µM): 16%
- % of inhibition ([2]; at 0.04 µM): 21.7%
- % of inhibition ([2]; at 0.2 µM): 11.2%
- % of inhibition ([2]; at 1 µM): 11.8%
- % of inhibition ([2]; at 5 µM): 28.8%
SMILES: CC[C@@H]1[C@H](F)C(=O)N[C@@H]1COc1nccc2cc(C(N)=O)c(OC)cc12 [ZIMLOVISERTIB]

- % of control [3]: 89.1%
SMILES: Cn1cc(-n2cnc3c(NCc4nc5cc(Cl)c(Cl)cc5[nH]4)nc(N4CCOCC4)nc32)cn1

SMILES: Cc1cc(F)c(C(=O)Nc2cccc(-c3nncn3C(C)C)n2)cc1-n1cnc(C2CC2)c1
- % of control [4]: 88%

- % of control [5]: 22%
SMILES: CCN(CC)CCCCNc1ncc2cc(-c3cc(OC)cc(OC)c3)c(NC(=O)NC(C)(C)C)nc2n1

SMILES: COc1cc(N(C)c2ccnc3ccc(C(F)(F)F)cc23)cc(OC)c1OC
- % binding [6]: 83%
- % binding [7]: 93%
- % binding [8]: 81%
- % binding [9]: 90%
- % binding [10]: 69%
- % binding [11]: 44%
- % binding [12]: 41%
- % binding [13]: 92%

SMILES: CCC(=O)N1CCN(c2ccc(-n3c(=O)ccc4cnc5ccc(-c6cnc7ccccc7c6)cc5c43)cc2C(F)(F)F)CC1
- % of control [14]: 86%

SMILES: N#Cc1cccc(-c2c[nH]c3ncnc(N4CCOCC4)c23)c1
- % of control [15]: 43%

SMILES: C=CC(=O)Nc1ccc(C(=O)Nc2[nH]nc3c2CN(C(=O)N[C@H](CN(C)C)c2ccccc2)C3(C)C)cc1
- % of engagement [16]: 0.8%

SMILES: CC(C)(O)[C@H](F)CN1Cc2cc(NC(=O)c3cnn4cccnc34)c(N3CCOCC3)cc2C1=O
- dTM [17]: -0.5 K
